# Legend:
# [1] = Liver microsome incubation test, rat; details: rat liver microsomes 0.5 mg/mL, 1 μM compound, NADPH, 37° C.
# Method: (§1) Incubation: 100 μL of an incubation system included: liver microsomes (human, rat, mouse, monkey or dog) (0.5 mg/mL), sodium phosphate buffer (100 mM), and magnesium chloride (10 mM). […] After pre-incubation of the systems at 37° C. for 3 min, NADPH was added to a final concentration of 1 mM. The reaction was started. […] Each sample at each time point was processed parallelly in duplicate and a blank control group without coenzymes and a positive control group were provided.
# (§2) A certain amount of internal standard was added to the sample following termination with acetonitrile. […] Relative remaining amount was taken as the ordinate and time as the abscissa.
# [2] = Pharmacokinetic / bioavailability test in SD rats (gavage 5 μmol/kg, intravenous 2 μmol/kg); details: male, rat, plasma, 2 umol/kg
# Method: At each corresponding time point post-dose, blood samples (about 1 ml/time point/rat) were collected to heparinized tubes. Within half an hour after collection, the samples were centrifuged to separate the plasma, which was transferred to 1.5 ml EP tubes and stored at −20° C. for detection.
# Method for precipitating proteins was used for the pretreatment of the samples: protein precipitation was carried out in 25 μL of plasma by using 200 μL of acetonitrile containing internal standard. After high-speed centrifugation, the supernatant was diluted with water (1:1 (V/V)) and injected for analysis.
# VMAT2 = VMAT2 (Rattus norvegicus (Rat), UniProt Q01827); assay: Radioactivity detection of binding to VMAT2 in rats ([3H]DHTBZ binding assay, rat cerebral vesicle membrane); details: Table 25
# Method: I. Radioactivity Detection of Activity of Compounds Binding to VMAT2 in Rats (Binding assay)
# To determine the IC50 and Ki values of the binding of various compounds to VMAT2 in rats and to evaluate the affinity of compounds for VMAT2.
# Male Wistar rat, weighing 175±25 g, was selected and the whole brain (without the cerebellum) of the rat was isolated surgically and placed into a pre-chilled sucrose solution (20 mL, 0.32 M) and homogenized by a Teflon pestle homogenizer. […] The supernatant was discarded and the precipitate obtained was placed in ice cold MilliQ water (18 mL, Millipore Corporation, Billerica, MA), incubated for 5 minutes and subjected to osmotic shock to shatter cell membrane. Then osmolarity was restored by addition of HEPES solution (25 mM, 2 mL) and potassium tartrate solution (100 mM, 2 mL). The resulting sample was centrifuged at 20,000 g for 20 min at 4° C. The supernatant was aspirated and MgSO4 solution (1 mM, 20 μL) was added. […] The precipitate was collected and resuspended in ice cold assay buffer (25 mM HEPES, 100 mM potassium tartrate, 5 mM MgSO4, 0.1 mM EDTA and 0.05 mM EGTA, pH 7.5) to obtain a vesicle suspension.
# After completion of the incubation, the reaction solution was filtered (bacteria filter and collector, PerkinElmer Life and Analytical Sciences) to a filter plate and subsequently, the filter membrane was washed with 350 μL of ice-cold buffer (25 mM HEPES, 100 mM potassium tartrate, 5 mM MgSO4 and 10 mM NaCl, pH 7.5) five times. The filter plate was dried and had the bottom sealed. 40 μL of scintillation cocktail (MicroScint 20; PerkinElmer Life and Analytical Sciences) was added to each well. Radioactivity on the filter was determined by liquid scintillation spectrometry (TopCount NXT; PerkinElmer Life and Analytical Sciences).
# Based on the radioactivity assay results above, IC50 and Ki were calculated. IC50 was calculated by a non-linear, least squares regression analysis using MathIQ™ (ID Business Solutions Ltd., UK). Ki values were calculated using the equation of Cheng and Prusoff (Cheng, Y., Prusoff, W. H., Biochem. Pharmacol. 22:3099-3108, 1973). Ki values were calculated in combination with the IC50 of the test compound and the historical KD in the radioactivity detection method of Eurofins Panlabs company.
# [3] = tested on: SD rat autonomous activity; assay: SD rat autonomous activity model (total movement distance in open field, TopScan); assay type: in vivo; details: SD rats, 0 hr to 1 hr post-dose
# Method: SD rat autonomous activity models were used in the study.
# • 2.1 Test animals: 32 SD rats, SPF-grade, Male, 5-7 weeks old, weighing: 200-220 g, pre-accustomed for at least 1 week before the test.
# Preparation method: An appropriate amount of the medicament was weighed and dissolved with a small amount of DMSO (not more than 1% of the total volume). Then, 20% Solutol was added to obtain the desired medicament concentration and the final concentration of DMSO was <4%.
# The rats were put into the detection box, pre-accustomed for 10 min and fasted. Animal grouping and dosing information were detailed in Table 35.
# On the day of the test, the animals were accustomed for at least 1 hr in the test room. Rats in each group were given a vehicle or corresponding medicaments, respectively according to the doses in Table 35 in one single gavage and then put into the activity room. […] Rats of a same group should not be put in one same room among the eight activity rooms, and there was at least one rat from the control group in each round of test to prevent mutual interference. At the end of each round of test, the feces were swept out and the activity rooms were cleaned to avoid the influence of irrelevant interfering factors (odor, etc.) on the exercise activities of the rats.
# The total movement distances of rats from 2 hr to 3 hr post-dose were recorded and analyzed by using a TopScan monitoring system and the reduction rate (RR) of the total movement distance was calculated, wherein RR=(Control group movement distance-Administration group movement distance)/Control group movement distance*100%.
# Test data were expressed as mean±standard error of the mean (MEAN±SEM). Difference between various groups at each time point was compared by using PASW Statistics 18.0 software with one-way analysis of variance (ANOVA).
# Animal grouping and dosing information were detailed in […].
# [4] = Excipient compatibility test (purity after storage with excipients); assay type: physicochemical; details: for purity change after mixing with excipients: mixed with excipients 1:20, placed open at 60° C. for 5 days
# Method: Then the mixture was placed open at 60° C. for 5 days.
# Purity detection method: about 35 mg of the sample was weighed precisely and placed in a 25 ml measuring flask. 15 ml of acetonitrile was added to dissolve the sample by ultrasound. Water was used to dilute to a given mark and the mixture was shaken uniformly and used as sample solution to be tested. Determination was carried out based on high performance liquid chromatography, octadecyl silane bonded silica gel was used as the filler (Inerstil ODS-3V, 250 mm×4.6 mm, 5 μm); 10 mmol/L diammonium hydrogen phosphate solution (adjusting the pH value to 6.95±0.05)-acetonitrile (80:20) was used as mobile phase A, acetonitrile was used as mobile phase B, and gradient elution was carried out according to Table 39. The detection wavelength was 282 nm; the column temperature was 35° C.; and the flow rate was 1.0 ml/min. 10 μl of the sample solution to be tested was precisely measured and injected into the liquid chromatograph, and the chromatogram was recorded. Calculation was carried out by the peak area normalization method.
# [5] = Liver microsome incubation test, dog; assay type: in vitro ADME; details: dog liver microsomes 0.5 mg/mL, 1 μM compound, NADPH, 37° C.
# Method: as §1, §2
# [6] = Liver microsome incubation test, human; details: human liver microsomes 0.5 mg/mL, 1 μM compound, NADPH, 37° C.
# Method: as §1, §2
# [7] = Distribution test in SD rat brain tissue, gavage 12 μmol/kg (brain concentration, brain/plasma ratio); assay type: in vivo; details: SD rats, gavage 12 μmol/kg of compound 21 or VBZ, 2 h post-dose; compound 21 vs VBZ, metabolite compound 11 vs DHTBZ
# Method: After the rats were sacrificed, the brain tissues were extracted, washed with normal saline and dried with filter paper. Cerebral vessels were stripped and the remaining brain tissues were weighed and stored at −20° C.
# [8] = Pharmacokinetic test in SD rats, gavage 10 μmol/kg (plasma concentration-time curves); assay type: in vivo; details: male SD rats, FIG. 9
# Method: Method of Pharmacokinetic Test in SD Rats:
# The dosage of administration was 10 μmol/kg. At 0.25, 0.5, 1, 2, 3, 4, 6, 8 and 12 h post-dose, blood samples (about 0.2 mL/time point/rat) were collected to heparinized tubes.
# [9] = 11-P4S crystal forms A/D/E suspension competition test; assay type: physicochemical; details: suspension in IPA / IPAc, room temperature to 50° C., 17 hours
# Method: Then XRPD was carried out on the solid.
# VMAT2, sequence (Q01827 whole entry): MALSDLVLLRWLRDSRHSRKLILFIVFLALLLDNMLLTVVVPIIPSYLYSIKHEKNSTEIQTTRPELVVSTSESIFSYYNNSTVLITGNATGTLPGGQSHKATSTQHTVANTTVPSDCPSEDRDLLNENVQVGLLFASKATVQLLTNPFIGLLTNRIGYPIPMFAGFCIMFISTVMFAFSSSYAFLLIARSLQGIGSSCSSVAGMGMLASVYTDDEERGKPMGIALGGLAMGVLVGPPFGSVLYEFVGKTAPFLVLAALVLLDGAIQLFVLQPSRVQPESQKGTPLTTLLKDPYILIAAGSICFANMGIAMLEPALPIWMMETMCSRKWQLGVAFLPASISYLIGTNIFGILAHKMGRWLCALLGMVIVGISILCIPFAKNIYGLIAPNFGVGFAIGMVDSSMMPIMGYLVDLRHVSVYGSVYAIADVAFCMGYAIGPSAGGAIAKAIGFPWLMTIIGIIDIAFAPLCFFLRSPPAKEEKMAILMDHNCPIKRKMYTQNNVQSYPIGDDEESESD
compound,measurement,setting,value
"COc1cc2c(cc1OCCCF)CCN1CC(CC(C)C)C(O)CC21 (centres unmarked) [Comparative Example 44, reference compound]",Elimination half-life (t1/2) in liver microsomes,[1],~ (the data showed that the metabolism was stable and the rate of the original compound left was greater than 80% after an incubation of 60 min.)
"COc1cc2c(cc1OC)[C@H]1C[C@@H](OC(=O)[C@@H](N)C(C)C)[C@H](CC(C)C)CN1CC2 [VBZ, valbenazine]",half-life,[2],1.67 h
COCCCOc1cc2c(cc1OC)C1CC(O)C(CC(C)C)CN1CC2 (centres unmarked) [Compound 17],IC50,VMAT2,58 nM
CCCOc1cc2c(cc1OC)C1CC(O)C(CC(C)C)CN1CC2 (centres unmarked) [Compound 20],IC50,VMAT2,4.9 nM
COc1cc2c(cc1OCC(F)(F)F)CCN1C[C@@H](CC(C)C)[C@H](O)C[C@H]21 [Compound 11-P4],movement distance (rat autonomous activity),[3]; 1.25 μmol/kg,9313±1213 mm
same,movement distance (rat autonomous activity),[3]; 2.5 μmol/kg,5959±1615 mm
same,movement distance (rat autonomous activity),[3]; 5.0 μmol/kg,1216±429.9 mm
same,movement distance (rat autonomous activity),[3]; 10.0 μmol/kg,1355±524.1 mm
same,purity change after mixing with excipients,[4],purity dropped obviously
COc1cc2c(cc1OCC(F)F)CCN1CC(CC(C)C)C(O)CC21 (centres unmarked) [Compound 12],Elimination half-life (t1/2) in liver microsomes,[5],~ (the data showed that the metabolism was stable and the rate of the original compound left was greater than 80% after an incubation of 60 min.)
same,Elimination half-life (t1/2) in liver microsomes,[6],~ (the data showed that the metabolism was stable and the rate of the original compound left was greater than 80% after an incubation of 60 min.)
same,Elimination half-life (t1/2) in liver microsomes,[1],~ (the data showed that the metabolism was stable and the rate of the original compound left was greater than 80% after an incubation of 60 min.)
CCOc1cc2c(cc1OC)C1CC(O)C(CC(C)C)CN1CC2 (centres unmarked) [Compound 16],IC50,VMAT2,12.9 nM
same,Elimination half-life (t1/2) in liver microsomes,[1],~ (the data showed that the metabolism was stable and the rate of the original compound left was greater than 80% after an incubation of 60 min.)
COc1cc2c(cc1OCC(F)(F)F)CCN1CC(CC(C)C)C(OC(=O)[C@@H](N)C(C)C)CC21 (some centres unmarked) [Compound 21],concentration in brain tissue compared to VBZ and DHTBZ,[7],significantly higher
COc1cc2c(cc1OCC(F)(F)F)CCN1CC(CC(C)C)C(O)CC21 (centres unmarked) [Compound 11],concentration in brain tissue compared to VBZ and DHTBZ,[7],significantly higher
same,Elimination half-life (t1/2) in liver microsomes,[5],~ (the data showed that the metabolism was stable and the rate of the original compound left was greater than 80% after an incubation of 60 min.)
same,exposure compared to Comparative Example 44 compound and DHTBZ,[8],higher exposure
same,Elimination half-life (t1/2) in liver microsomes,[1],~ (the data showed that the metabolism was stable and the rate of the original compound left was greater than 80% after an incubation of 60 min.)
COc1cc2c(cc1OCC(F)(F)F)CCN1C[C@@H](CC(C)C)[C@H](O)C[C@H]21.Cc1ccc(S(=O)(=O)O)cc1 [crystal form A of 11-P4S],thermodynamic stability of crystal form,[9],most thermodynamically stable crystal form
same,purity,"[4]; API alone, 0 d",99.70%
same,purity,"[4]; API alone, high temperature (60° C.), open, 5 d",99.69%
same,purity,"[4]; mixed with MCC 1:20, high temperature (60° C.), open, 5 d",99.26%
same,purity change after mixing with excipients,[4],no obvious change
same,purity,"[4]; mixed with magnesium stearate 1:20, high temperature (60° C.), open, 5 d",99.68%
same,purity,"[4]; mixed with talc powder 1:20, high temperature (60° C.), open, 5 d",99.68%
COc1cc2c(cc1OCCCC(F)(F)F)CCN1CC(CC(C)C)C(O)CC21 (centres unmarked) [Compound 13],Elimination half-life (t1/2) in liver microsomes,[5],~ (the data showed that the metabolism was stable and the rate of the original compound left was greater than 80% after an incubation of 60 min.)
same,Elimination half-life (t1/2) in liver microsomes,[1],~ (the data showed that the metabolism was stable and the rate of the original compound left was greater than 80% after an incubation of 60 min.)
"CCCOc1cc2c(cc1OCC)CCN1CC(CC(C)C)C(O)CC21 (centres unmarked) [Comparative Example 41, reference compound]",IC50,VMAT2,280 nM

# Source: US12565495B2, “VMAT2 inhibitor and preparation method therefor and application thereof” (Luye Innomind Pharma Shijiazhuang Co., Ltd., priority 2019, dated 2026)
